Experimental data taken from ChEMBL document CHEMBL2157897, “Meso-tetrakis(p-sulfonatophenyl)N-confused porphyrin tetrasodium salt: a potential sensitizer for photodynamic therapy” (J Med Chem, 2012).
The source made the active and inactive calls. No cut-off for these calls is given here.

How the values were obtained:
[1] = system: MDA-MB-231; experiment: Induction of ROS generation in human MDA-MB-231 cells using CM-H2DCFDA as probe after 24 hrs post photoirradiation by FACS flow cytometry; format: functional, cell-based
[2] = system: MDA-MB-231; experiment: Induction of apoptosis in human MDA-MB-231 cells assessed as decrease in mitochondrial membrane potential at 6 uM preincubated for 1 hr followed by photoirradiation measured after 24 hrs by JC1 staining based fluorescence microscopy (reference value: 12.1 +/- 4.9 %); format: functional; design: scale not given: the % may be the effect or the level left
[3] = Photocytotoxicity against human SCC131 cells preincubated for 1 hr prior to illumination measured after 24 hrs post illumination by MTT assay; format: functional, cell-based
[4] = system: MDA-MB-231; experiment: Induction of apoptosis in human MDA-MB-231 cells at 12 uM after 1 hr by annexin V-FITC/propidium iodide staining based flow cytometry in absence of light; format: cell-based; details: mda-mb-231, 1 h
[5] = system: MDA-MB-231; experiment: Induction of ROS generation in human MDA-MB-231 cells using CM-H2DCFDA as probe at 6 uM after 24 hrs post photoirradiation by FACS flow cytometry (reference value: 13.7 +/- 2.3 %); format: functional
[6] = system: MDA-MB-231; experiment: Induction of apoptosis in human MDA-MB-231 cells assessed as chromatin condensation at 6 uM preincubated for 1 hr followed by photoirradiation measured after 24 hrs by Hoechst staining based fluorescence microscopy (reference value: 10.4 +/- 1.5 %); format: functional
[7] = system: HeLa; experiment: Photocytotoxicity against human HeLa cells preincubated for 1 hr prior to illumination measured after 24 hrs post illumination by MTT assay; format: functional, cell-based
[8] = system: MCF7; experiment: Cytotoxicity against human MCF7 cells assessed as cell viability at 10 to 50 uM after 24 hrs by MTT assay in absence of light; format: cell-based; details: mcf7, 24 h
[9] = system: HeLa; experiment: Cytotoxicity against human HeLa cells assessed as cell viability at 10 to 50 uM after 24 hrs by MTT assay in absence of light; format: cell-based
[10] = system: MDA-MB-231; experiment: Induction of apoptosis in human MDA-MB-231 cells assessed as PARP cleavage at 12 uM after 1 hr by immunoblotting in absence of light; format: cell-based; details: mda-mb-231, 1 h
[11] = system: MIA PaCa-2; experiment: Photocytotoxicity against human MIAPaCa2 cells preincubated for 1 hr prior to illumination measured after 24 hrs post illumination by MTT assay; format: functional, cell-based
[12] = system: MDA-MB-231; experiment: Induction of ROS generation in human MDA-MB-231 cells using CM-H2DCFDA as probe at 12 uM after 24 hrs post photoirradiation by FACS flow cytometry (reference value: 13.7 +/- 2.3 %); format: functional
[13] = system: MDA-MB-231; experiment: Photocytotoxicity against human MDA-MB-231 cells preincubated for 1 hr prior to illumination measured after 24 hrs post illumination by MTT assay; format: functional, cell-based
[14] = Cytotoxicity against human SCC131 cells assessed as cell viability at 10 to 50 uM after 24 hrs by MTT assay in absence of light; format: cell-based; details: scc131, 24 h
[15] = system: SiHa; experiment: Cytotoxicity against human SiHa cells assessed as cell viability at 10 to 50 uM after 24 hrs by MTT assay in absence of light; format: cell-based
[16] = system: MDA-MB-231; experiment: Induction of apoptosis in human MDA-MB-231 cells assessed as chromatin condensation at 12 uM preincubated for 1 hr followed by photoirradiation measured after 24 hrs by Hoechst staining based fluorescence microscopy (reference value: 10.4 +/- 1.5 %); format: functional
[17] = system: HCT-116; experiment: Cytotoxicity against human HCT116 cells assessed as cell viability at 10 to 50 uM after 24 hrs by MTT assay in absence of light; format: cell-based; details: hct-116, 24 h
[18] = system: MDA-MB-231; experiment: Induction of apoptosis in human MDA-MB-231 cells assessed as chromatin condensation preincubated for 1 hr followed by photoirradiation measured after 24 hrs by Hoechst staining based fluorescence microscopy; format: functional, cell-based
[19] = system: MDA-MB-231; experiment: Induction of apoptosis in human MDA-MB-231 cells assessed as decrease in mitochondrial membrane potential at 12 uM preincubated for 1 hr followed by photoirradiation measured after 24 hrs by JC1 staining based fluorescence microscopy (reference value: 12.1 +/- 4.9 %); format: functional; design: scale not given: the % may be the effect or the level left
[20] = system: MIA PaCa-2; experiment: Cytotoxicity against human MIAPaCa2 cells assessed as cell viability at 10 to 50 uM after 24 hrs by MTT assay in absence of light; format: cell-based; details: mia paca-2, 24 h
[21] = system: MDA-MB-231; experiment: Ratio of IC50 for human HeLa cells to IC50 for human MDA-MB-231 cells; format: functional
[22] = system: MCF7; experiment: Photocytotoxicity against human MCF7 cells preincubated for 1 hr prior to illumination measured after 24 hrs post illumination by MTT assay; format: functional, cell-based
[23] = system: HCT-116; experiment: Photocytotoxicity against human HCT116 cells preincubated for 1 hr prior to illumination measured after 24 hrs post illumination by MTT assay; format: functional, cell-based
[24] = system: SiHa; experiment: Photocytotoxicity against human SiHa cells preincubated for 1 hr prior to illumination measured after 24 hrs post illumination by MTT assay; format: functional, cell-based
[25] = Photocytotoxicity against human SCC172 cells preincubated for 1 hr prior to illumination measured after 24 hrs post illumination by MTT assay; format: functional, cell-based
[26] = Cytotoxicity against human SCC172 cells assessed as cell viability at 10 to 50 uM after 24 hrs by MTT assay in absence of light; format: cell-based; details: scc172, 24 h
[27] = system: MDA-MB-231; experiment: Induction of apoptosis in human MDA-MB-231 cells assessed as early apoptotic cells at 12 uM preincubated for 1 hr followed by photoirradiation by annexin V-FITC/propidium iodide staining based flow cytometry (reference value: 3.5 +/- 0.41 %); format: functional
[28] = system: MDA-MB-231; experiment: Induction of apoptosis in human MDA-MB-231 cells assessed as early apoptotic cells at 6 uM preincubated for 1 hr followed by photoirradiation by annexin V-FITC/propidium iodide staining based flow cytometry (reference value: 3.5 +/- 0.41 %); format: functional
[29] = system: MDA-MB-231; experiment: Cytotoxicity against human MDA-MB-231 cells assessed as cell viability at 10 to 50 uM after 24 hrs by MTT assay in absence of light; format: cell-based; details: mda-mb-231, 24 h
[30] = system: MDA-MB-231; experiment: Induction of apoptosis in human MDA-MB-231 cells assessed as PARP cleavage at 6 and 12 uM preincubated for 1 hr followed by photoirradiation by immunoblotting; format: functional, cell-based

In the case of `O=S(=O)([O-])c1ccc(-c2c3cc(c(-c4ccc(S(=O)(=O)[O-])cc4)c4ccc([nH]4)c(-c4ccc(S(=O)(=O)[O-])cc4)c4nc(c(-c5ccc(S(=O)(=O)[O-])cc5)c5ccc2[nH]5)C=C4)N=C3)cc1.[Na+].[Na+].[Na+].[Na+]`, the Activity [1] is reported as “Dose-dependent effect”, the Activity [2] is reported as 69.7% and the IC50 [3] is reported as 13 µM. For the same compound, the Activity [4] was “Non-toxic”, the Activity [5] was 61.8% and the Activity [6] was 72%. For the same compound, the IC50 [7] was 25 µM, the Activity [8] was “Non-toxic” and the Activity [9] was “Non-toxic”. For the same compound, the Activity [10] was “Non-toxic”, the IC50 [11] was 8 µM and the Activity [12] was 79.5%. For the same compound, the IC50 [13] was 6 µM, the Activity [14] was “Non-toxic” and the Activity [15] was “Non-toxic”. For the same compound, the Activity [16] was 91%, the Activity [17] was “Non-toxic” and the Activity [18] was “Dose-dependent effect”. The Activity [19] was 88.5%, the Activity [20] was “Non-toxic” and the “Ratio IC50” value [21] was 5. It also gave an IC50 [22] of 12 µM, an IC50 [23] of 8 µM and an IC50 [24] of 20 µM. The IC50 [25] was 11 µM, the Activity [26] was “Non-toxic” and the Activity [27] was 83.9%. The Activity [28] was 65.8%, the Activity [29] was “Non-toxic” and the Activity [30] was “Active”.
